Patent US20080312292A1, “Antipruritics” (priority 2002, published 2008)
Read-outs that look alike come from different tables or passages of the source. Marks after values point to notes of the source that are not given here.

Assays:
[1] = target: T1, Human cannabinoid receptor CB1R (Homo sapiens, UniProt P21554); assay: Human cannabinoid receptor binding inhibition, [3H]CP55940, CB1R; conditions: membranes of CB1R-expressing CHO cells, [3H]CP55940 0.5 nM; read-out: Ki CB1 receptor
T1 construct: expressed in transfected cells; host or cells: CHO cells
Protocol: (§1) The crude membrane fractions as Human cannabinoid receptor were then prepared from the CB1R or CB2R-expressing CHO cells. Receptor binding assay was performed by incubating the membranes with each test compound and 38,000 dpm [^3H]CP55940 (at a final concentration of 0.5 nM: NEN Life Science Products) in the assay buffer (50 mM Tris-HCl; 1 mM EDTA, 3 mM MgCl2, pH 7.4) containing 0.5% bovine serum albumin (BSA) for 2 hr at 25° C. The incubation mixture was filtered through 1% polyethylenimine (PEI)-treated GF/C glass filter and washed with 50 mM Tris-HCl (pH 7.4) containing 0.1% BSA. The radioactivity was then counted with a liquid scintillation counter. […] Ki value of test compound is calculated by obtained IC50 value and Kd value of [^3H]CP55940.

[2] = target: T2, Human cannabinoid receptor CB2R (Homo sapiens, UniProt P34972); assay: Human cannabinoid receptor binding inhibition, [3H]CP55940, CB2R; conditions: membranes of CB2R-expressing CHO cells, [3H]CP55940 0.5 nM; read-out: Ki CB2 receptor
T2 construct: expressed in transfected cells; host or cells: CHO cells
Protocol: as §1

human CB1R = target: T3, human CB1R (Homo sapiens, UniProt P21554); assay: cell-based; conditions: CHO cells expressing human CB1R; read-out: cAMP Inhibition: IC50 CB1
T3 construct: expressed in transfected cells; host or cells: CHO cells

human CB2R = target: T4, human CB2R (Homo sapiens, UniProt P34972); assay: Cannabinoid receptor-mediated suppression of forskolin-stimulated cAMP synthesis, CB2R; assay type: cell-based; conditions: CHO cells expressing human CB2R
T4 construct: expressed in transfected cells; host or cells: CHO cells

mouse CB1 receptor = target: T5, mouse CB1 receptor (Mus musculus, UniProt P47746); assay: Binding inhibitory activity to mouse cannabinoid receptors, brain membrane fraction; parameters: species or system C57BL/6 J mice; conditions: mouse brain membrane fraction; read-out: Binding Assay: Ki Brain (CB1)
T5 construct: The membrane fractions of mouse brain and spleen that abundantly express CB1 and CB2 receptor, respectively; from tissue; host or cells: mouse brain membrane fraction (C57BL/6 J)

mouse CB2 receptor = target: T6, mouse CB2 receptor (Mus musculus, UniProt P47936); assay: Binding inhibitory activity to mouse cannabinoid receptors, spleen membrane fraction; parameters: species or system C57BL/6 J mice; conditions: mouse spleen membrane fraction; read-out: Binding Assay: Ki Spleen (CB2)
T6 construct: The membrane fractions of mouse brain and spleen that abundantly express CB1 and CB2 receptor, respectively; from tissue; host or cells: mouse spleen membrane fraction (C57BL/6 J)

[3] = test system: compound 48/80-induced pruritus; assay: Inhibitory effect on compound 48/80-induced pruritus in ICR strain mice; conditions: 100 mg/kg (p.o.), ICR mice, compound 48/80-induced scratching

T4 sequence (P34972 whole entry): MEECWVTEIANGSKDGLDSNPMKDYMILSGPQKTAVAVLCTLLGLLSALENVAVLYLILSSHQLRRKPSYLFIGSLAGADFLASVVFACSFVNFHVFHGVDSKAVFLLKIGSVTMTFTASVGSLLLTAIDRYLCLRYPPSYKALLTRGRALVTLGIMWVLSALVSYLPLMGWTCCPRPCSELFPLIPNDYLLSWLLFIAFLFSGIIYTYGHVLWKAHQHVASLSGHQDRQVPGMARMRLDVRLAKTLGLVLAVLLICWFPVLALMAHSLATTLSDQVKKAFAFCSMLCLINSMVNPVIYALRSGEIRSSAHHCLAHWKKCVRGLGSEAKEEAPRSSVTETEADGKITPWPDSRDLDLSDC
T6 sequence (P47936 whole entry): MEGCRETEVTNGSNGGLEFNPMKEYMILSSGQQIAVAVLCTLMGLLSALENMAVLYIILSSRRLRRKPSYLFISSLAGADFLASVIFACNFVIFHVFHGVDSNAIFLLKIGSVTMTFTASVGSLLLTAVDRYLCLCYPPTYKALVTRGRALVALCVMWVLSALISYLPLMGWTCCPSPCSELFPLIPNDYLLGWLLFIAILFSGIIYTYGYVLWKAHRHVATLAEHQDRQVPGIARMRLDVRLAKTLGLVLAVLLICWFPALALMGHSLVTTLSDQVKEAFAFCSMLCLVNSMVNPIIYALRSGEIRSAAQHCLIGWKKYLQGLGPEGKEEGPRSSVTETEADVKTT
T5 sequence (P47746 whole entry): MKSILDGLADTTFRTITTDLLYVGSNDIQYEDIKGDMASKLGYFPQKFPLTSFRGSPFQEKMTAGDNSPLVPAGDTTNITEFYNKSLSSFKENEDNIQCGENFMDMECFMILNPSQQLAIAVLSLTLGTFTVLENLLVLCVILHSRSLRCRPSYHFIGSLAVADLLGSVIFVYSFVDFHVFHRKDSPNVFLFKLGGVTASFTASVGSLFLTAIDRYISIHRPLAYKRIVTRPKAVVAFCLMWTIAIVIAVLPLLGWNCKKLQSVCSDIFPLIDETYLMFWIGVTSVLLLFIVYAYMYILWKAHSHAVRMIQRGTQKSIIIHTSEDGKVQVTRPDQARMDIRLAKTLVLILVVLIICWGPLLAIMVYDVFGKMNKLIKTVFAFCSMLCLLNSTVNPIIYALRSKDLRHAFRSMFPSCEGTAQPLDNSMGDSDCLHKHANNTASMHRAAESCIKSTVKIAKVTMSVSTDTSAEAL
T2 sequence (P34972 whole entry): as the sequence (P34972 whole entry) above
T3 sequence (P21554 whole entry): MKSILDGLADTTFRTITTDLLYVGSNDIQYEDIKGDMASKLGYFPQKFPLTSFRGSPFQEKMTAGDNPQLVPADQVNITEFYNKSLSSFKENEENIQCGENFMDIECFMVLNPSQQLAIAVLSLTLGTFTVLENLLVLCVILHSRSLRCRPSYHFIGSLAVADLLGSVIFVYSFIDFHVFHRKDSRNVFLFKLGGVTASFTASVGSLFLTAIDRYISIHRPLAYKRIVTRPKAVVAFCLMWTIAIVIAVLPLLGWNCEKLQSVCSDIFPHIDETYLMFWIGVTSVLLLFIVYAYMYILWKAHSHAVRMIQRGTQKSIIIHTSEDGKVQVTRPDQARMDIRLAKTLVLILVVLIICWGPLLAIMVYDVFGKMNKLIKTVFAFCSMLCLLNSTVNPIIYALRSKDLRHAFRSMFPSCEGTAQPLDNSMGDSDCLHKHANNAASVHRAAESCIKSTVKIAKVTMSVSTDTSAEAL
T1 sequence (P21554 whole entry): as above

CCCCn1c2c(cc(C(=O)NCc3ccccc3)c1=O)CCCCCC2 [Compound 4-101]
Ki [1]: 890 nM
Ki [2]: 1.5 nM
IC50 (human CB1R): 60.3 nM
IC50 (human CB2R; forskolin-stimulated cAMP synthesis, read-out: CB2 receptor IC50): 1.4 nM
IC50 (human CB2R; read-out: cAMP Inhibition: IC50 CB2): 1.4 nM
Ki (mouse CB1 receptor): 35 nM
Ki (mouse CB2 receptor): 0.6 nM
Antipruritic Effect (%) [3]: 81** %
